This assay deals with T1, A2 Adenosine receptor (Rattus norvegicus, UniProt P30543).
T1 construct: membrane preparations derived from the rat phaeochromocytoma cell line PC 12; host or cells: PC 12 rat phaeochromocytoma cells, membranes
The assay can be described thus: A2 Adenosine receptor affinity test: displacement of [3H]-NECA from PC 12 cell membrane preparations. The class given is binding. The protocol:
The membrane preparation is obtained as follows: Frozen pellets of PC12 cells are washed twice with ice cold, buffered, physiological saline and the cells recovered by centrifugation (1500 G) at 3° C. The separated cells are then suspended in hypotonic solution (distilled water), allowed to stand on ice for 30 minutes and are then carefully homogenized using a standard high-speed homogeniser with periodic ice-cooling to obtain a fine suspension. […] The mixture is then incubated at 37° C. After 20 minutes, the reaction is terminated by dilution with ice-cold buffer and transfer onto ice. The material obtained containing the cell membranes is recovered by centrifugation and washed by resuspension in buffer and recentrifugation. The pellet produced is then resuspended in ice-cold buffer using a hand-driven homogenizer. The resultant membrane suspension is frozen and stored under liquid nitrogen until required.
After incubation, the samples are rapidly filtered over glass-fibre mats and the filter mats are washed to remove non-receptor-bound radioligand. Receptor-bound radioligand entrapped on the filter mats is then determined by liquid scintillation counting. Filtration and washing are carried out using a conventional vacuum filtration cell harvester. The specific binding (defined as the difference between the total binding and the non-specific binding) in the presence of the particular test compound is determined and compared with the control value.

[1] abbreviates: read-out: displacement of control binding.

Structures are written as SMILES.

T1 sequence (P30543 whole entry): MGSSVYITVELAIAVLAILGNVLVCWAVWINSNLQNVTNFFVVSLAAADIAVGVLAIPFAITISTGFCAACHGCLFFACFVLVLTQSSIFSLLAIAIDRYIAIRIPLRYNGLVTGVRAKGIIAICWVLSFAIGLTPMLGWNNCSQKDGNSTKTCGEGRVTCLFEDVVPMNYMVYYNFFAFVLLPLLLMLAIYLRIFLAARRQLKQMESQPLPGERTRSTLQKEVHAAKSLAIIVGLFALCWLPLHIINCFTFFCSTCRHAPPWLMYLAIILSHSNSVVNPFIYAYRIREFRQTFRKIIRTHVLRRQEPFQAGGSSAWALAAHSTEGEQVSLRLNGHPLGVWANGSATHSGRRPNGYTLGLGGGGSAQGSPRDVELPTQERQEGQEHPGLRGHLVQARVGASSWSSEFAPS

In the case of `COc1ccc(CCNc2nc(N)c3nc(-c4ccco4)oc3n2)cc1` [Example 1, 7-amino-2-(2-furyl)-5-[2-(4-methoxyphenyl)ethyl]asino-oxazolo[5,4-d]pyrimidine], where the note is “[3H]-NECA displacement, PC 12 membranes, inferred from displacement at 10^-5 M and 10^-7 M, read-out: pIC50 (indicated by the % displacement values) (converted)”, the IC50 was below 0.1 µM. Further, under setting [1], the inhibition at 0.1 µM was 59% and the inhibition at 10 µM was determined as 78%.

The values above are taken from US5500428A, “Furyl-substituted purines and adenosine antagonists” (Imperial Chemical Industries PLC, priority 1991, dated 1996).
